In ChEMBL document CHEMBL1143038, “Highly oxygenated and unsaturated metabolites providing a diversity of hispidin class antioxidants in the medicinal mushrooms Inonotus and Phellinus” (Bioorg Med Chem, 2007):

Legend:
Type in all cases: functional
[1] = Antioxidant activity assessed as ABTS radical scavenging activity
[2] = tested on: Radical scavenging activity; test: Antioxidant activity assessed as DPPH radical scavenging activity
[3] = Antioxidant activity assessed as superoxide radical anion scavenging activity

Molecule	IC50 [1]	IC50 [2]	IC50 [3]
O=C(O)/C=C/c1ccc(O)c(O)c1 [CAFFEIC ACID]	25.9 µM	3.7 µM	2.2 µM
CC(=O)/C=C(O)/C(=C\c1ccc(O)c(O)c1)c1c(O)cc(/C=C/c2ccc(O)c(O)c2)oc1=O [INTERFUNGIN A]	14.1 µM	6.3 µM	2.7 µM
VITAMIN E	11.6 µM	> 100 µM	3.4 µM

Now those with a lower IC50 [1], led by results:

IC50 [1]	IC50 [2]	IC50 [3]	Molecule
11.1 µM	2.5 µM	1.8 µM	CC(=O)/C(=C\c1ccc(O)c(O)c1)c1c(O)cc(/C=C/c2ccc(O)c(O)c2)oc1=O [INTERFUNGIN B]
11.1 µM	3.7 µM	3.1 µM	COC(=O)/C(=C\c1ccc(O)c(O)c1)c1c(O)cc(/C=C/c2ccc(O)c(O)c2)oc1=O [INTERFUNGIN C]
